In patent US6380192B1, “Triazine compounds and method of use therefor” (Alteon, Inc., priority 1996, dated 2002):
Counter-ions that a name gives are not always drawn.

Experiments:
[1] = tested on: N-acetyl glycyl-lysine methyl ester; test: Inhibition of cross-linking of N-acetyl glycyl-lysine methyl ester in the presence of ribose (fluorescence); format: biochemical; settings: 0.5 M sodium phosphate buffer pH 7.4, 37° C., 16-24 hours; read-out: IC50 inhibition of cross-linking of N-acetylglycyllysine methyl ester with ribose
From the text: The following method was used to evaluate the ability of the compounds of the present invention to inhibit the cross-linking of N-acetyl glycyl-lysine methyl ester in the presence of ribose.
N-acetylglycyllysine methyl ester (DP in formula below)
Ribose (R in formula below)
Test compounds (C in formula below)
0.5 M sodium phosphate buffer pH 7.4
N-acetylglycyllysine methyl ester in 0.5M sodium phosphate buffer, pH 7.4
Test compounds dissolved in the above buffer and the pH is adjusted to 7.4, if necessary
Reaction mixtures are prepared as follows:
and incubated at 37° C. for 16-24 hours. At the end of the incubation period reaction mixture is diluted with 3 ml distilled water and the fluorescence is read using an excitation wavelength of 350 nm and emission wavelength of […]. The inhibition of the cross-linking is calculated from the decrease in the fluorescence in the presence of the test compounds according to the formula:
Inhibition (%)=100×[DPRC fluorescence−RC fluorescence]/DPR fluorescence
The Inhibition by various test compounds (IC50) is as follows: […]

diabetic rats = settings: cited from earlier work
red blood cells = settings: in vivo; cited from earlier work
[2] = tested on: streptozotocin-diabetic rat; settings: cited from earlier work
kidney = settings: in vivo; cited from earlier work

Row | IC50 [1] [µM] | Compound | other results
1 | 1600 | CCCCc1nnc(N)n(N)c1=O [3,4-diamino-6-butyl-1,2,4-triazine-5(4H)-one] | 
2 | > 10000 | COc1cccc(C(=O)C=C2NN=C(N)N(N)C2=O)c1 [3,4-diamino-6-(3′-methoxyphenylcarbonylmethylene)-1,2,4-triazine-5(4H)-one] | 
3 | < 3000 | Cc1nnc(NN)n(N)c1=O [4-amino-3-hydrazino-6-methyl-1,2,4-triazin-5(4H)-one hydrochloride] | 
4 | 830 | 2-methyl-[6′-(3′,4′-diamino-5(4H)-one-1,2,4-triazinyl)]hydrazide | 
5 |  | N=C(N)NN [aminoguanidine] | Aortic wall protein cross-linking (diabetic rats): diminishes aortic wall protein cross-linking; Diabetes-induced changes in the deformability of red blood cells (red blood cells): has been shown to prevent it in vivo; Increased glomerular basement membrane thickness [2]: prevented; Immunoglobulin trapping in the kidney (kidney): reduction of immunoglobulin trapping in the kidney
6 | > 1000 | Cl.NNc1nnc(Cc2ccc(O)cc2)c(=O)n1N [4-amino-3-hydrazino-6-(4′-hydroxybenzyl)-1,2,4-triazin-5(4H)-one hydrochloride] | melting point: 218 to 222 °C (dec.)
